# Reference: paper PMC2607046 (Journal of medicinal chemistry, 2008)
# Experiments:
# [1] = target: dopamine D3 receptor (Rattus norvegicus, UniProt P19020); type: binding
# [2] = target: dopamine D2L receptor (Rattus norvegicus, UniProt P61169); type: binding
# [3] = 35c (spacer length 4) relative to 35a (spacer length 2)
# dopamine D2L receptor, sequence (P61169 whole entry): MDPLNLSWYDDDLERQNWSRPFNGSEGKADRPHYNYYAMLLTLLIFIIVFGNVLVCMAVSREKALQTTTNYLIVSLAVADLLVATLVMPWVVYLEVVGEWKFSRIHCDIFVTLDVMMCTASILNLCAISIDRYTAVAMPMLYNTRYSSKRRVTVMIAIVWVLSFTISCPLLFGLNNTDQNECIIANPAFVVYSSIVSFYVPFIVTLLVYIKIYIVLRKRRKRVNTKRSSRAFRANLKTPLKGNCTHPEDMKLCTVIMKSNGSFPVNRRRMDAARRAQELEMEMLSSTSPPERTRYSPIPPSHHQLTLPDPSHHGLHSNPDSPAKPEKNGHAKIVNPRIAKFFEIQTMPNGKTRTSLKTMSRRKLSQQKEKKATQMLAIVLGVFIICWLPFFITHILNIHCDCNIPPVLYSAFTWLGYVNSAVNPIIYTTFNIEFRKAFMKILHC
# dopamine D3 receptor, sequence (P19020 whole entry): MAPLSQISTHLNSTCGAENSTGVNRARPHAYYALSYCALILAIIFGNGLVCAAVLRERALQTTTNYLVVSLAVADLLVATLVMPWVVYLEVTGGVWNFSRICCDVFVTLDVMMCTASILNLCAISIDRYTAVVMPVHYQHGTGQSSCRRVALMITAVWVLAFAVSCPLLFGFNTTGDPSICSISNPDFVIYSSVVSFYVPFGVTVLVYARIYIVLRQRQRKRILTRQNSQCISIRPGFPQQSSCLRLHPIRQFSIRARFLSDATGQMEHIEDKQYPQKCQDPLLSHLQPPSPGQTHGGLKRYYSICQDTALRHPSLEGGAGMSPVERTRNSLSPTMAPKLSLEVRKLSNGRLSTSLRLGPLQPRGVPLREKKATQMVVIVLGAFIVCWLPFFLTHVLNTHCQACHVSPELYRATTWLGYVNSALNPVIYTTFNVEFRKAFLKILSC
structure (smiles),measurement,setting,value
"Oc1cccc2c1CC[C@H]1[C@H]2CCCN1CCN1CCN(c2ccccc2)CC1 (racemic) [(±)-8, (±)-trans-4-(2-(4-Phenylpiperazin-1-yl)ethyl)-1,2,3,4,4a,5,6,10b-octahydrobenzo[f]-quinolin-7-ol]",Ki,[1],0.0149 ± 0.0043 µM
"Oc1ccc2c(c1)C[C@H]1[C@@H](CCCN1CCCCN1CCN(c3ccccc3)CC1)C2 (racemic) [(±)-35c, (±)-trans-1-[4-(4-Phenylpiperazin-1-yl)butyl]-1,2,3,4,4a,5,10,10a-octahydrobenzo-[g]quinolin-8-ol]",gain in affinity for D2 receptor,[2]; [3],~ 9 fold
same,gain in affinity for D3 receptor,[1]; [3],~ 3 fold
CCCN(CCN1CCN(c2ccccc2)CC1)[C@H]1CCc2c(O)cccc2C1 [(−)-7],"difference in inhibition constants between enantiomers, D2L receptor",[2]; (−)-7 versus its enantiomer (+)-7,~ 9 fold
